Measurements published in the OPERA property sets (Mansouri et al. 2018).

Row | logP | Compound
1 | 1.64 | OCCCCCC(F)(F)F
2 | 1.15 | OCCCCC(F)(F)F
3 | 1.7 | CCC(O)CCC(F)(F)F (stereo not given)
4 | 0.39 | OCCC(F)(F)F
5 | 0.9 | OCCCC(F)(F)F

More lines, now with the values behind:

Row | Compound | logP
6 | CC(CCO)CC(F)(F)F (stereo not given) | 1.61
7 | CC(CO)CC(F)(F)F (stereo not given) | 1.39
8 | CC(CCO)C(F)(F)F (stereo not given) | 1.37
9 | CC(O)CC(F)(F)F (stereo not given) | 0.71
10 | CC(C)(O)C(F)(F)F | 1.04
